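These data come from cells grown in 96-well plates and exposed to compound for 48 hours at five concentrations. GI50 marks 50% less growth. TGI: concentration producing complete growth inhibition.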

Some test systems named below: HCT-15 colon; LOX IMVI melanoma; MALME-3M melanoma; NCI-H226 lung; NCI-H522 lung; OVCAR-8 ovarian; SF-268 CNS; SK-MEL-28 melanoma; NCI-H23 lung.
What all share (assay): inhibition of tumour cell growth, NCI panel, 48 h

Regarding `O=C1NC(=O)C2C1C1C=C3c4ccccc4N(c4ccccc4)C32[C@H]2C(=O)NC(=O)[C@@H]12` (stereo partly drawn), the TGI in the assay with HCT-15 colon, in the assay on LOX IMVI melanoma, in the assay on MALME-3M melanoma, in the assay with NCI-H226 lung, in the assay on NCI-H522 lung and in the assay with OVCAR-8 ovarian was more than 100 µM each time. The TGI with SF-268 CNS and with SK-MEL-28 melanoma was more than 100 µM each time.
As for `C#CCn1c(=O)c2cccnc2n(CC#C)c1=O`, the TGI in the assay with HCT-15 colon, in the assay with LOX IMVI melanoma, in the assay on MALME-3M melanoma, in the assay on NCI-H226 lung, in the assay with NCI-H23 lung and in the assay with NCI-H522 lung was more than 100 µM throughout. Also, the TGI with SF-268 CNS and in the assay on SK-MEL-28 melanoma was more than 100 µM in each case.
Consider `Cn1c2cc([N+](=O)[O-])ccc2c(=O)c2c(O)cc3c(c21)C=CC(C)(C)O3`, for which the TGI with HCT-15 colon, in the assay with LOX IMVI melanoma, in the assay with MALME-3M melanoma, with NCI-H23 lung, with NCI-H522 lung and in the assay with OVCAR-8 ovarian was more than 100 µM in each case. Besides, the TGI in the assay on SF-268 CNS and in the assay with SK-MEL-28 melanoma was more than 100 µM throughout.
In the case of `CCc1cccc(CC)c1NC(=O)CC1SC(N)=NC1=O` (stereo not drawn), the TGI with HCT-15 colon, in the assay with LOX IMVI melanoma, in the assay on MALME-3M melanoma, in the assay on NCI-H226 lung, in the assay with NCI-H23 lung and in the assay on NCI-H522 lung was more than 100 µM each time. For the same compound, the TGI in the assay with OVCAR-8 ovarian, in the assay with SF-268 CNS and in the assay on SK-MEL-28 melanoma was more than 100 µM in each case.
Consider `CC(=O)CC(=O)NC=O`, for which the TGI in the assay on HCT-15 colon, with MALME-3M melanoma, in the assay on NCI-H226 lung, in the assay with NCI-H23 lung, with NCI-H522 lung and in the assay with OVCAR-8 ovarian was more than 100 µM each time. Besides, the TGI with SF-268 CNS and in the assay on SK-MEL-28 melanoma was more than 100 µM in each case.
In the case of `Cc1ccc(NC(=O)/C(=N\NC(N)=S)C(C#N)c2ccccc2C)cc1C` (stereo not drawn), the TGI in the assay on HCT-15 colon, in the assay on MALME-3M melanoma, with NCI-H226 lung, in the assay with NCI-H23 lung, in the assay with NCI-H522 lung and with OVCAR-8 ovarian was more than 100 µM throughout. Moreover, the TGI in the assay with SF-268 CNS and with SK-MEL-28 melanoma was more than 100 µM in each case.
Turning to `C=C1c2[nH]c3ccccc3c2CC(C(=O)O)N1C(O)c1ccc(S(=O)(=O)O)cc1` (stereo not drawn), the TGI in the assay with LOX IMVI melanoma, with MALME-3M melanoma, with NCI-H226 lung, in the assay with NCI-H23 lung, in the assay on NCI-H522 lung and in the assay with OVCAR-8 ovarian was more than 100 µM each time. In addition, the TGI in the assay with SF-268 CNS and in the assay on SK-MEL-28 melanoma was more than 100 µM each time.
`N#Cc1c(-c2ccccc2)cc(-c2cccs2)c(C#N)c1N`: the TGI in the assay with HCT-15 colon, in the assay on LOX IMVI melanoma, in the assay with MALME-3M melanoma, in the assay on NCI-H522 lung, in the assay with OVCAR-8 ovarian and with SF-268 CNS was more than 100 µM throughout.
With `C=CCC12CCC(=O)[C@@]1(C)CC=C(O)C2=O` (stereo partly drawn), the TGI in the assay with HCT-15 colon, with LOX IMVI melanoma, with MALME-3M melanoma, in the assay on NCI-H226 lung, with NCI-H522 lung and with OVCAR-8 ovarian was more than 100 µM in each case. Also, the TGI with SF-268 CNS and with SK-MEL-28 melanoma was more than 100 µM throughout.
Take `O=C([O-])CCc1ccccc1.O=C([O-])CCc1ccccc1.O=C([O-])CCc1ccccc1.O=C([O-])CCc1ccccc1.[Mo+2].[Mo+2]`: the GI50 in the assay on HCT-15 colon, in the assay with LOX IMVI melanoma, in the assay with MALME-3M melanoma, with NCI-H226 lung, in the assay with NCI-H23 lung and with OVCAR-8 ovarian was more than 100 µM in each case. The GI50 with SF-268 CNS and in the assay with SK-MEL-28 melanoma was more than 100 µM throughout. For the same compound, the TGI in the assay on HCT-15 colon, in the assay on LOX IMVI melanoma, with MALME-3M melanoma, with NCI-H226 lung, with NCI-H23 lung and in the assay with OVCAR-8 ovarian was more than 100 µM throughout. Also, the TGI in the assay with SF-268 CNS and with SK-MEL-28 melanoma was more than 100 µM each time.
Take `Fc1ccc(C2SCc3nc4ccccc4n32)cc1F` (stereo not drawn): the TGI in the assay on HCT-15 colon is more than 100 µM; in the assay with MALME-3M melanoma it was more than 100 µM; in the assay with NCI-H23 lung, 81.9 µM; with NCI-H522 lung it was 61.7 µM; in the assay with OVCAR-8 ovarian it was more than 100 µM; with SF-268 CNS, more than 100 µM. In the assay with SK-MEL-28 melanoma, this compound registered a TGI of 66.7 µM.
With `COC(=O)c1nc(C(=O)OC)c2c([nH]c3ccccc32)c1C(=O)OC`, the TGI in the assay on HCT-15 colon, in the assay on LOX IMVI melanoma, in the assay on MALME-3M melanoma, in the assay on NCI-H226 lung, in the assay with NCI-H23 lung and in the assay on OVCAR-8 ovarian was more than 100 µM each time. In addition, the TGI in the assay with SK-MEL-28 melanoma was more than 100 µM.
Regarding `N#CC(/C(=N/NC(N)=S)C(=O)Nc1cccc(Cl)c1)c1ccccc1` (stereo not drawn), the TGI with HCT-15 colon, in the assay on MALME-3M melanoma, in the assay on NCI-H226 lung, in the assay with NCI-H23 lung, with NCI-H522 lung and in the assay with OVCAR-8 ovarian was more than 100 µM in each case. The TGI in the assay on SF-268 CNS and with SK-MEL-28 melanoma was more than 100 µM each time.
Take `O=C1C(=C([O-])c2ccccc2)C(=O)c2ccccc21.O=C1C(=C([O-])c2ccccc2)C(=O)c2ccccc21.[Co+2]`: the GI50 in the assay with LOX IMVI melanoma was 82.1 µM; in the assay with MALME-3M melanoma, 40.1 µM; in the assay with NCI-H226 lung it was more than 100 µM; in the assay on NCI-H23 lung it was more than 100 µM; with NCI-H522 lung, 80.6 µM; in the assay with OVCAR-8 ovarian it was more than 100 µM. Besides, the GI50 in the assay on SF-268 CNS and in the assay with SK-MEL-28 melanoma was more than 100 µM in each case. Moreover, the TGI in the assay with LOX IMVI melanoma, in the assay on MALME-3M melanoma, with NCI-H226 lung, in the assay with NCI-H23 lung, with NCI-H522 lung and in the assay on OVCAR-8 ovarian was more than 100 µM in each case. For the same compound, the TGI in the assay on SF-268 CNS and with SK-MEL-28 melanoma was more than 100 µM throughout.
Take `C=C(COC(C)=O)CC(/C=C(\C)CC/C=C(\C)CO)OC(C)=O` (stereo not drawn): the TGI with HCT-15 colon, in the assay with LOX IMVI melanoma, in the assay with NCI-H226 lung, in the assay on NCI-H23 lung, in the assay on NCI-H522 lung and with OVCAR-8 ovarian was more than 100 µM in each case. Besides, the TGI with SF-268 CNS and in the assay on SK-MEL-28 melanoma was more than 100 µM in each case.

The values above are taken from PubChem BioAssay (NCI).
